Source: BindingDB's records for doi:10.7270/Q2G73C2Z (University of Pittsburgh, 2007)

What follows are compounds tested against T1, Dual specificity protein phosphatase 6 (Rattus norvegicus, UniProt Q64346) (assay: reproducibility of MKP-3 inhibition curves – biochemical, rat DUSP6, reproducibility testing, probe assessment, dose response (AID 566)).
T1 sequence (Q64346 whole entry): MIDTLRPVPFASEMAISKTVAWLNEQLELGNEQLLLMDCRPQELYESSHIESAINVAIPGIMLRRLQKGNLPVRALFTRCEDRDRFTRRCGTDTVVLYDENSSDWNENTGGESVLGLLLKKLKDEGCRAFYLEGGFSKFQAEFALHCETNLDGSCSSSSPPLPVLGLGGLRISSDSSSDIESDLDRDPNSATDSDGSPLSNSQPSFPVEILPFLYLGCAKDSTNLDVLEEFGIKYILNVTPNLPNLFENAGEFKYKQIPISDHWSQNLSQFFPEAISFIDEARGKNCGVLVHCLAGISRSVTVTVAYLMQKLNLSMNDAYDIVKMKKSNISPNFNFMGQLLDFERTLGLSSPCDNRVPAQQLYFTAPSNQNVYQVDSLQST
With `N#Cc1c(N)sc(=S)c2c1CCN(Cc1ccccc1)C2` [3-Amino-7-benzyl-1-thioxo-5,6,7,8-tetrahydro-1H-thiopyrano[3,4-c]pyridine-4-carbonitrile] the IC50 was 2.08 µM. Work on `Cc1nc2c(C(=O)NCCC3=CCCCC3)c[nH]n2c(=O)c1Cl` [6-chloro-N-(2-cyclohex-1-en-1-ylethyl)-7-hydroxy-5-methylpyrazolo[1,5-a]pyrimidine-3-carboxamide] yielded an IC50 of over 50 µM. `O=C(OC1CCCCC1)c1ccc2c(c1)C1C=CCC1C(C(=O)O)N2` (configuration not stated) [SMR000019385] was tested, and the IC50 was over 50 µM. In the case of `O=C1Nc2ccccc2SC(c2ccccc2)C1O` (configuration not stated) [3-hydroxy-2-phenyl-2,3-dihydro-1,5-benzothiazepin-4(5H)-one], the IC50 is reported as over 50 µM. In the case of `CCCCn1c(NC(=O)c2ccccc2)c(C#N)c2nc3ccccc3nc21` [SMR000060333], the IC50 is reported as 18.4 µM. `Cc1ccc(-c2csc(NC(=O)c3ccno3)n2)cc1` [MLS000081820] was tested, and the IC50 was over 50 µM. `O=C1C=Cc2ccccc2C1=O` [1,2-dihydronaphthalene-1,2-dione] showed an IC50 of over 50 µM. `[O-]/[N+](=C\c1ccncc1)c1ccccc1` was tested, and the IC50 was over 50 µM. In the case of `CCOc1ccc2noc3c2c1C(=O)c1ccccc1-3` [MLS000106837], the IC50 is reported as over 50 µM. `O=C(NC1(O)C(=O)c2ccccc2C1=O)c1ccccc1` [N-(2-hydroxy-1,3-dioxo-2-indenyl)benzamide] gave an IC50 of 19.9 µM. Work on `CC(C)(C)N1C(=O)Cc2c1nc(N)c1c(N)nc(N3CCCCC3CO)c(C#N)c21` (configuration not stated) [5,6-bis(azanyl)-3-tert-butyl-8-[2-(hydroxymethyl)piperidin-1-yl]-2-oxidanylidene-1H-pyrrolo[2,3-c][2,7]naphthyridine-9-carbonitrile] yielded an IC50 of over 50 µM. With `COc1cc(/C=C(/C#N)c2ccc(F)cc2)ccc1OCc1ccc(C(=O)O)o1` [5-({4-[2-cyano-2-(4-fluorophenyl)vinyl]-2-methoxyphenoxy}methyl)-2-furoic acid] the IC50 was over 50 µM. `COc1ccc(Cn2c(C)nc3c(c2=O)c2nc4ccccc4nc2n3Cc2ccco2)cc1` [MLS000079944] was tested, and the IC50 was over 50 µM. With `O=C1C(=C2C(=O)c3ccccc3C2=O)Nc2ccccc21` [MLS000071738] the IC50 was over 50 µM. `Cc1cccc(N2CCN(C(=O)Cc3c(C(=O)O)[nH]c4ccc(Cl)cc34)CC2)c1C` [5-chloranyl-3-[2-[4-(2,3-dimethylphenyl)piperazin-1-yl]-2-oxidanylidene-ethyl]-1H-indole-2-carboxylic acid] showed an IC50 of over 50 µM. `CCn1c(SCC(=O)Nc2ccc3c(c2)c2ccccc2n3CC)nnc1-c1ccco1` [MLS000050867] showed an IC50 of over 50 µM. `Cc1c(N=c2c(=O)c3ccccc3c2=O)c(=O)n(-c2ccccc2)n1C` [MLS000105950] was tested, and the IC50 was 8.19 µM. In the case of `CCOC(=O)c1ccc2c(c1)C1C=CCC1C(C(=O)O)N2` (configuration not stated) [MLS-0025126.0001], the IC50 is reported as over 50 µM. For `CCn1nc(-c2cccs2)nc2c(=O)n(C)c(=O)nc1-2` [1-ethyl-6-methyl-3-thiophen-2-yl-pyrimido[5,4-e][1,2,4]triazine-5,7-dione], the IC50 was 0.445 µM. Work on `Nc1nc2c(s1)CCc1c-2cnn1-c1ccccc1` [MLS000085948] yielded an IC50 of over 50 µM. `Cc1cc(NC(=O)c2ccc(S(=O)(=O)N3CCCC3)cc2)nc2c1c(=O)oc1ccccc12` [MLS000091355] showed an IC50 of over 50 µM. In the case of `Cc1cc(C)n2c(SCC(=O)N3CCN(S(=O)(=O)c4ccc(Cl)cc4)CC3)nnc2n1` [1-[4-(4-chlorophenyl)sulfonyl-1-piperazinyl]-2-[(5,7-dimethyl-[1,2,4]triazolo[4,3-a]pyrimidin-3-yl)thio]ethanone], the IC50 is reported as over 50 µM. Compound `COc1ccc(-n2c(NC(=O)c3ccco3)c(C#N)c3nc4ccccc4nc32)cc1` [MLS000079925] has an IC50 of 14.2 µM. `CCOc1cc(/C=C(/C#N)c2ccc(F)cc2)ccc1OCc1ccc(C(=O)O)o1` [5-[[4-[(E)-2-cyano-2-(4-fluorophenyl)ethenyl]-2-ethoxyphenoxy]methyl]furan-2-carboxylic acid] was tested, and the IC50 was over 50 µM. `CCCCn1c(SCC(=O)c2ccc(OC)cc2OC)nc2cc(S(N)(=O)=O)ccc21` [1-butyl-2-[2-(2,4-dimethoxyphenyl)-2-oxidanylidene-ethyl]sulfanyl-benzimidazole-5-sulfonamide] showed an IC50 of over 50 µM. `COc1ccc2noc3c2c1C(=O)c1ccccc1-3` [MLS000106874] showed an IC50 of 22.6 µM. `O=C(Nc1ccc2nc(-c3ccco3)c(-c3ccco3)nc2c1)N1CCCCCC1` was tested, and the IC50 was over 50 µM. `COc1ccc(-c2cc3nc(C4CCN(C(=O)OC(C)(C)C)CC4)c(C(=O)O)cn3n2)cc1` [2-(4-methoxyphenyl)-5-[1-[(2-methylpropan-2-yl)oxy-oxomethyl]-4-piperidinyl]-6-pyrazolo[1,5-a]pyrimidinecarboxylic acid] showed an IC50 of over 50 µM. `Cc1ccc(C)n1-c1cccc(C(=O)O)c1` showed an IC50 of over 50 µM. In the case of `FC(F)(F)c1ccc(N2CCOCC2)c(Nc2nc3ccccc3n3cnnc23)c1` [MLS000093276], the IC50 is reported as over 50 µM. `CCOc1ccc(-c2cc3nc(C4CCN(C(=O)OC(C)(C)C)CC4)c(C(=O)O)cn3n2)cc1` [2-(4-ethoxyphenyl)-5-[1-[(2-methylpropan-2-yl)oxy-oxomethyl]-4-piperidinyl]-6-pyrazolo[1,5-a]pyrimidinecarboxylic acid] was tested, and the IC50 was over 50 µM. Compound `[O-]/[N+](=C\c1ccc(OC(F)F)cc1)c1ccccc1` [1-[4-(difluoromethoxy)phenyl]-N-phenylmethanimine oxide] has an IC50 of over 50 µM. `N#Cc1c(NC(=O)c2ccc(Br)o2)n(-c2ccccc2)c2nc3ccccc3nc12` [5-bromanyl-N-(3-cyano-1-phenyl-pyrrolo[3,2-b]quinoxalin-2-yl)furan-2-carboxamide] gave an IC50 of 15.5 µM. `N#Cc1c(N2CCCC2)nc(N)c2c(N)nc(N3CCCC3)cc12` [SMR000061605] showed an IC50 of 3.43 µM. `Nc1c(N2CCCC2)cc(Cl)c2nonc12` [(7-chloro-5-pyrrolidino-benzofurazan-4-yl)amine] gave an IC50 of over 50 µM. Work on `Cc1nc2cc(-c3cccc(F)c3)nn2c(C)c1CCC(=O)N1CCC2(CC1)OCCO2` [1-(1,4-dioxa-8-azaspiro[4.5]decan-8-yl)-3-[2-(3-fluorophenyl)-5,7-dimethyl-6-pyrazolo[1,5-a]pyrimidinyl]-1-propanone] yielded an IC50 of over 50 µM. For `CC(C)Cn1c(N)c(C(=O)COC(=O)c2cc(-c3ccco3)nc3ccccc23)c(=O)n(C)c1=O` [2-(2-furanyl)-4-quinolinecarboxylic acid [2-[4-amino-1-methyl-3-(2-methylpropyl)-2,6-dioxo-5-pyrimidinyl]-2-oxoethyl] ester], the IC50 was over 50 µM. For `CCCCNC(=O)c1c(N)n(CCCOC)c2nc3ccccc3nc12` [2-amino-N-butyl-1-(3-methoxypropyl)-3-pyrrolo[3,2-b]quinoxalinecarboxamide], the IC50 was over 50 µM. `CC1=C(/C=C/C(C)=C/C=C/C(C)=C/C(=O)O)C(C)(C)CCC1` [ALL-TRANS-RETINOIC ACID] gave an IC50 of over 50 µM. With `CCCCCNC(=O)c1ccc2c(=O)[nH]c3c(C(=O)NCC4CCCO4)sc(=S)n3c2c1` (configuration not stated) [5-oxo-N3-(2-oxolanylmethyl)-N8-pentyl-1-sulfanylidene-4H-thiazolo[3,4-a]quinazoline-3,8-dicarboxamide] the IC50 was over 50 µM. Work on `CCCCCC#CCC#CCC#CCC#CCCCC(=O)O` yielded an IC50 of over 50 µM. `Cc1ccc(/C=C/C2=Cc3c(sc(NC(=O)CSc4nnc(N)[nH]4)c3C#N)C(C)(C)C2)o1` [2-[(5-azanyl-1H-1,2,4-triazol-3-yl)sulfanyl]-N-[3-cyano-7,7-dimethyl-5-[(E)-2-(5-methylfuran-2-yl)ethenyl]-6H-1-benzothiophen-2-yl]ethanamide] was tested, and the IC50 was over 50 µM. Compound `COC(=O)c1ccccc1NC(=O)CN1C(=O)C2CCCN2c2ncc(Cl)cc21` (configuration not stated) [MLS000094302] has an IC50 of over 50 µM. `COCCCn1c(N)c(C(=O)NCCC(C)C)c2nc3ccccc3nc21` [MLS000041744] was tested, and the IC50 was over 50 µM. Compound `COc1ccc(Br)cc1C=c1sc2nc(-c3ccco3)nn2c1=O` [5-[(5-bromanyl-2-methoxy-phenyl)methylidene]-2-(furan-2-yl)-[1,3]thiazolo[3,2-b][1,2,4]triazol-6-one] has an IC50 of over 50 µM. In the case of `CCc1ccc(NC(=O)CSc2nc3ccccc3c(=O)n2CCN2CCOCC2)cc1` [MLS000095236], the IC50 is reported as over 50 µM. Work on `[O-]/[N+](=C/c1ccc(F)cc1)c1ccccc1` [(E)-(4-fluorobenzylidene)(phenyl)azane oxide] yielded an IC50 of over 50 µM. In the case of `CC(C)Sc1nc2sc3c(c2c2nnc(SCC(=O)NCc4ccco4)n12)CCCC3` [MLS000082957], the IC50 is reported as over 50 µM. Compound `CC(=O)[C@@H]1[C@@H]2C(=O)N(c3ccc(F)c(Cl)c3)C(=O)[C@@H]2C2c3ccccc3C=CN21` (some centres not stated) [MLS000040594] has an IC50 of 47.1 µM. For `Cn1ncnc2c(=O)n(C)c(=O)nc1-2`, the IC50 was 0.535 µM. For `O=C1c2ccccc2-c2onc3ccc(NCCCn4ccnc4)c1c23` [SMR000044769], the IC50 was over 50 µM. `CCn1nc(-c2ccccc2)nc2c(=O)n(C)c(=O)nc1-2` [1-Ethyl-6-methyl-3-phenyl-1H-pyrimido[5,4-e][1,2,4]triazine-5,7-dione] showed an IC50 of 0.568 µM. `O=C(c1cccs1)c1no[n+]([O-])c1C(=O)c1cccs1` [(5-oxidanidyl-4-thiophen-2-ylcarbonyl-1,2,5-oxadiazol-5-ium-3-yl)-thiophen-2-yl-methanone] showed an IC50 of over 50 µM. `CCCSc1nnc(NC(=O)c2sc3nc(-c4cccs4)ccc3c2N)s1` [3-amino-N-(5-propylsulfanyl-1,3,4-thiadiazol-2-yl)-6-thiophen-2-ylthieno[2,3-b]pyridine-2-carboxamide] showed an IC50 of over 50 µM. `O=C(Nc1ccccc1)c1ccc2nc(-c3ccco3)c(-c3ccco3)nc2c1` [2,3-di-2-furyl-N-phenyl-6-quinoxalinecarboxamide] showed an IC50 of over 50 µM. `O=C1C=C(NCc2ccc(Cl)c(Cl)c2)CC1` [3-[(3,4-dichlorobenzyl)amino]cyclopent-2-en-1-one] was tested, and the IC50 was over 50 µM. In the case of `Cc1cccc(NC(=O)c2cc(NC(=O)C3CCCCC3C(=O)O)ccc2N2CCCCC2)c1` (configuration not stated) [2-({[3-{[(3-methylphenyl)amino]carbonyl}-4-(1-piperidinyl)phenyl]amino}carbonyl)cyclohexanecarboxylic acid], the IC50 is reported as over 50 µM.
